Consider six compounds from patent publication US12448425B2, “Therapeutic peptides” (Board of Regents, The University of Texas System, priority 2019, dated 2025).

The target of one series is T1, EphB4 (Homo sapiens, UniProt P54760).
T1 construct: purchased R&D Systems
T1 sequence (P54760 16-987): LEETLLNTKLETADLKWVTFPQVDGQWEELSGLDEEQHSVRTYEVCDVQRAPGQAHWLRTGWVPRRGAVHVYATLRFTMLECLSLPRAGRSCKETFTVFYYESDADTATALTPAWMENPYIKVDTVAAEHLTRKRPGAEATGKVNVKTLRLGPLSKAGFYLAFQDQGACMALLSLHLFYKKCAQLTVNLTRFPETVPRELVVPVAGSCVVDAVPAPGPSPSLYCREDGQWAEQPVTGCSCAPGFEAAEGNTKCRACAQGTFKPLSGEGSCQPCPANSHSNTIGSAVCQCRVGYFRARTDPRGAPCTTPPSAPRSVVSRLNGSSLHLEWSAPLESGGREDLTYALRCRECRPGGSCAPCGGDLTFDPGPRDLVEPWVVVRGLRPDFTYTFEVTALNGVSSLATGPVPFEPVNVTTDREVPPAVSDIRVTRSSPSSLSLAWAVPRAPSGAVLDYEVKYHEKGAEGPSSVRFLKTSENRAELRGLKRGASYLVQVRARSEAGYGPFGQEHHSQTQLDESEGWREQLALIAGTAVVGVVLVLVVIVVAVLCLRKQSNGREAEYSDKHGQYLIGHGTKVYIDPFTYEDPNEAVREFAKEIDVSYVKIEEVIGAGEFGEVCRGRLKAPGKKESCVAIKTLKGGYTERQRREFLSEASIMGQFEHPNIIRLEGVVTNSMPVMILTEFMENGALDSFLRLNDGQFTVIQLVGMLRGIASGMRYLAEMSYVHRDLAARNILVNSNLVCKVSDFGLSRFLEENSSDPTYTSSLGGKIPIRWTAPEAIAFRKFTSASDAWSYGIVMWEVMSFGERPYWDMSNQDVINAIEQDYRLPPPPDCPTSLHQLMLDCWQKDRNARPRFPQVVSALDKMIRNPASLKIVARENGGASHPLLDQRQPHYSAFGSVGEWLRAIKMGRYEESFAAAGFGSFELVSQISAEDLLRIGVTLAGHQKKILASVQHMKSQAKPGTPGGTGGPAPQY
The series can be described thus: SPR binding of peptides to immobilized EphB4. To be noted: EphB4-coated sensor chips, 25° C. How it is done:
Surface plasmon resonance (SPR) binding and competition assays. A stock solution of EphB4 in PBS (100 μg/mL) was diluted to 25 μg/mL with 10 mM sodium acetate buffer (pH 4.5) and immobilized to CM5 sensor chips using the amine coupling reaction according to manufacturer-provided procedures (BIACore). Briefly, the surfaces of the chips in flow cells (FC)-1 and FC-2 were activated by exposing chips to a mixture of 200 mM N-ethyl-N′-dimethylaminopropyl carbodiimide and 50 mM N-hydroxysuccinimide for 7 min. FC-1 was used as a reference surface and was directly deactivated by injecting 1 M ethanolamine at pH 8.5 for 7 min. FC-2 was injected with 25 μg/mL human or murine EphB4 followed by injection of 1 M ethanolamine to block the remaining activated ester groups on the surface. The chips were allowed to stabilize for at least 2 h in HBSEP running buffer before injection of test analytes.
(In general: In SPR one partner is held on a chip, and binding of the other changes the refractive index at the surface.)

For another series, the system named is A2780cp20 cells. Put plainly: Internalization of Alexa647-labeled peptides (confocal microscopy). The class given is cell-based, human. How it is done:
FIGS. 2A-C: BIDEN-AP acts as an EphB4 agonist. (FIG. 2A) BIDEN-AP induced phosphorylation of EphB4 and the associated […] (Crk1). After 16 h serum starvation, A2780cp20 cells were incubated with EFNB2-Fc (20 nM), TNYL-RAW (SEQ ID NO: 12) (50 μM), or BIDEN-AP (50 μM) for 30 min or 2 h. The uncropped blots were available at Supplemental FIG. 11. (FIG. 2B) BIDEN-AP inhibited A2780cp20 cell invasion compared to untreated control (CTL). A modified Boyden transwell chamber coated with human defined matrigel was used. Experiments were performed in triplicate. Data are presented as mean±SD. ***p<0.001. (FIG. 2C) Alexa647-BIDEN-AP was internalized via receptor-mediated endocytosis. A2780cp20 cells were incubated at 37° C. with Alexa647-BIDEN-AP (0.05 μM), Alexa647-TNYL-RAW (SEQ ID NO: 12) (0.05 μM), or Alexa647-BIDEN-AP (0.05 μM) plus unlabeled TNYL-RAW (SEQ ID NO: 12) (5 μM, blocking). Alexa647-BIDEN-AP but not Alexa647-TNYL-RAW (SEQ ID NO: 12) was internalized into the A2780cp20 cells.
A2780cp20 cells were incubated at 4° C. with Alexa647-BIDEN-AP (0.05 μM).
Immunofluorescence imaging. A2780cp20 ovarian cancer cells (5×10^5 cells/well) were plated in 4-well chamber slides and treated with Alexa647-labeled BIDEN-AP (50 μM) for 1 h or 2 h. Cells were washed three times with 1×PBS and fixed in freshly prepared fixative containing 3.7% formaldehyde, 0.05% glutaraldehyde, and 0.4% Triton-X-100 in PHEMO buffer (0.068 M PIPES, 0.025 M HEPES, 0.015 M EGTA, 0.003 M MgCl2, and 10% ov/v dimethylsufoxide [DMSO]) for 10 min at room temperature. LysoTracker Green (Cat. L7526; Invitrogen, Carlsbad, CA) was used as a marker of lysosome. The nucleus was stained with Hoechst 33342 (300 nM) at room temperature for 10 min before mounting in Gel Mount mounting medium (Vector Laboratories, Burlingame, CA). Fixed and immunofluorescence-stained cells were imaged using a Zeiss LSM510 Meta laser scanning confocal system (Zeiss, Dublin, CA) configured to a Zeiss Axioplan 2 upright microscope with a CFI Plan Apo Lambda 20× objective lens. Images were obtained from three independent biological replicates.

Series [1] has as its system EphB4 on the surface of A2780cp20 cells. In kind it is cell-based, human. To be noted: 1 h. How it is done:
Cell-based binding assay. A2780cp20 ovarian cancer cells (1×10^6 cells/mL) were incubated with EFNB2-Fc (20 nM) and BIDEN-AP at concentrations ranging from 0 to 100 μM at 25° C. for 1 h. After washings, EFNB2-Fc bound to the cells were probed with PE-labeled anti-Fc antibody and analyzed by flow cytometry. Binding of BIDEN-AP to A2780cp20 cells was determined by its ability to displace EFNB2-Fc's binding to the tumor cells, measured by decreased PE fluorescence signal. Cells were analyzed in a Cellquest fluorocytometer (BD Bioscience, San Jose, CA). The experiments were run in duplicate.

The subject of the next series is MDA-HGSC-1 PDX tumor. To be noted: mouse, in vivo. The text has this:
PDX model of high grade serous ovarian carcinoma (HGSC). Under Institutional Review Board (IRB protocol PA15-0441) and IACUC approval at University of Texas, MD Anderson Cancer Center, patients with high-serous ovarian carcinoma that were being treated by at the MD Anderson Cancer Center were consented for this study. Subcutaneous HGSC-PDX model was established in 4-6 week old female Balb C athymic nude mice (Harlan Laboratories, Indianapolis, Ind.) by implanting one PDX 3×3×3 mm tumor cube (MDA-HGSOC-1 high-grade serous ovarian cancer; generation 9) at the dorsal portion of each mouse. Tumor size was monitored by caliber, and tumor volume was calculated using the formula V(cm^3)=(length×width^2)/2. Mice were randomly assigned to the PBS vehicle control or BIDEN-AP treatment group, 6 mice per group, once tumor size reached ˜100 mm^3 (21 days after implantation). PBS or BIDEN-AP was injected intraperitoneally at […] ([…]), once every other day for a total of 14 doses. At the end of the study (day 49), all mice were euthanized, and tumors were collected, weighted, and snap-frozen in optimal cutting temperature compound with liquid nitrogen, and cryosectioned into 5-μm sections for IHC staining of CD31 and Ki67 markers. […] Cell nuclei were counterstained with DAPI.

For a further series, the system named is 4T1 cells. The series can be described thus: 4T1 i.v. lung metastasis model. The note with it: throughout these in vivo studies. More on the design: species or system mouse. The text has this: FIGS. 25A-B: Anti-metastatic activity of BIDEN-AP. (FIG. 25A) Representative photographs of lungs from different treatment groups. The normal lung tissue was stained by blue ink. (FIG. 25B) Counts of surface metastatic nodules in the lung by visual inspection. Data are expressed as mean±SD. **p<0.01 (n=10).
BIDEN-AP was given at the same dose and the same schedule as in FIG. 24A. […] Thus, BIDEN-AP is highly anti-metastatic.

For series [2] the following is noted: Zhang et al., 2011b; cited from earlier work.

Square brackets hold non-standard residues; d marks the D form. Ends that are not written are not given here. Peptide text beside a SMILES is read from it. A value given as a limit tells only on which side of the number the result lay.

Broadly, the Kd is the free concentration of one partner at which half of the binding sites on the other are occupied at equilibrium, for simple one-to-one binding. A lower Kd goes with higher affinity. Regarding `CC[C@H](C)[C@H](NC(=O)[C@@H]1CCCN1C(=O)CNC(=O)[C@H](CC(N)=O)NC(=O)[C@@H]1CCCN1C(=O)[C@@H](CO)NC(=O)[C@H](Cc1ccccc1)NC(=O)[C@H](CC(C)C)NC(=O)[C@H](Cc1ccc(O)cc1)NC(=O)[C@H](CC(N)=O)NC(=O)[C@@H](N)[C@@H](C)O)C(=O)N[C@@H](C)C(=O)N[C@@H](CCCNC(=N)N)C(=O)N[C@@H](C)C(=O)N[C@@H](Cc1c[nH]c2ccccc12)C(N)=O` [B4-006] (H-TNYLF[dS]PNGPIARAW-NH2), at EphB4, the Kd was > 1 µM.

Turning to “Alexa647-TNYL-RAW: TNYL-RAW coupled with Alexa647-NHS (TNYLRAW; also: Alexa647 label, site not given here) [reference compound]”, the “cellular internalization at 37° C.” value in the series on A2780cp20 cells is “excluded”.

For the compound YSA-TNYL-RAW-dimer [B4-003], the Kd with EphB4 worked out at 0.021 µM.

For orientation: IC50 means the point on the concentration scale where inhibition reaches its midpoint. High values mean weaker potency in that assay, low ones greater potency in that assay. On to `CC[C@H](C)[C@H](NC(=O)[C@@H]1CCCN1C(=O)CNC(=O)[C@H](CC(N)=O)NC(=O)[C@@H]1CCCN1C(=O)[C@H](CO)NC(=O)[C@H](Cc1ccccc1)NC(=O)[C@H](CC(C)C)NC(=O)[C@@H](Cc1ccc(O)cc1)NC(=O)[C@H](CC(N)=O)NC(=O)[C@@H](N)[C@@H](C)O)C(=O)N[C@@H](C)C(=O)N[C@@H](CCCNC(=N)N)C(=O)N[C@@H](C)C(=O)N[C@@H](Cc1c[nH]c2ccccc12)C(N)=O` [BIDEN-AP] (H-TN[dY]LFSPNGPIARAW-NH2; C-terminus assumed), for which the IC50 in series [1] was ~1 µM. In the series with MDA-HGSC-1 PDX tumor, the “body weight change vs control group” value is listed as “did not result in body weight change”. In the series with 4T1 cells, the “tolerability (treatment-related death, body weight)” value is on record as “no cases of treatment-related death or change in body weight”.

In the case of “Alexa647-BIDEN-AP: BIDEN-AP coupled with Alexa647-NHS (TN[dY]LFSPNGPIARAW; also: Alexa647 label, site not given here)”, the “cellular internalization at 37° C.” value in the series with A2780cp20 cells was “readily internalized”. For the same compound, the “internalization in presence of excess unlabeled TNYL-RAW” value in the series with A2780cp20 cells (37° C., blocking) is “blocked”.

With “TNYLFSPNGPIARAW-NH2 (C-terminus assumed) [TNYL-RAW]”, the “area-under-the time curve [AUC]” value in series [2] is recorded as 29.1 % ID h/mL.
